# Reference: ChEMBL document CHEMBL1201862, “PubChem BioAssay data set” (2004)
#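 Cultured in 96-well plates, cells were exposed to test compound for 48 hours across five concentrations. At the GI50, growth is halved.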 Calls of active or inactive are those of the source. Cut-off read from the data, not from the text of the source: active = GI50 up to about 1.1 µM and inactive = higher.
# Assays:
# Assay in all cases: DTP human tumour cell line panel, 48 h
# [1] = test system: BT-549
# [2] = test system: CAKI-1
# [3] = test system: CCRF-CEM
# [4] = test system: DU-145
# [5] = test system: HCT-15
# [6] = test system: K562
# [7] = test system: LOX IMVI
# [8] = test system: MCF7
# [9] = test system: NCI-H226
# [10] = test system: NCI-H460
# [11] = test system: NCI/ADR-RES
# [12] = test system: OVCAR-5
# [13] = test system: OVCAR-8
# [14] = test system: PC-3
# [15] = test system: RXF 393
# [16] = test system: SN12C
# [17] = test system: SNB-19
# [18] = test system: TK-10
# [19] = test system: U-251
SMILES,GI50 [1],GI50 [2],GI50 [3],GI50 [4],GI50 [5] [µM],GI50 [6],GI50 [7],GI50 [8],GI50 [9],GI50 [10],GI50 [11],GI50 [12],GI50 [13],GI50 [14],GI50 [15],GI50 [16],GI50 [17],GI50 [18],GI50 [19]
C(=C\Nc1ccc(-c2ccccc2)cc1)/C=N/c1ccc(-c2ccccc2)cc1,> 100 µM (inactive),> 100 µM (inactive),> 100 µM (inactive),> 100 µM (inactive),> 100,> 100 µM (inactive),> 100 µM (inactive),> 100 µM (inactive),> 100 µM (inactive),> 100 µM (inactive),> 100 µM (inactive),> 100 µM (inactive),> 100 µM (inactive),> 100 µM (inactive),> 100 µM (inactive),> 100 µM (inactive),> 100 µM (inactive),54.3 µM (inactive),> 100 µM (inactive)
CCCCCCCCCCCCCCCCCCNc1ccn(C2OC(CO)C(OP(=O)(O)OCC(COP(=O)(O)OCC3OC(n4cc(F)c(NCCCCCCCCCCCCCCCCCC)nc4=O)CC3O)OC(=O)CCCCCCCCCCCCCCC)C2O)c(=O)n1 (stereo unspecified),> 100 µM (inactive),> 100 µM (inactive),95.3 µM (inactive),> 100 µM (inactive),> 100,3.01 µM (inactive),> 100 µM (inactive),> 100 µM (inactive),> 100 µM (inactive),> 100 µM (inactive),> 100 µM (inactive),> 100 µM (inactive),> 100 µM (inactive),> 100 µM (inactive),> 100 µM (inactive),> 100 µM (inactive),> 100 µM (inactive),> 100 µM (inactive),> 100 µM (inactive)
CC(C)(C)OC(=O)N1CC(CCl)c2ccc(O)cc21 (stereo unspecified),1.97 µM (inactive),2.97 µM (inactive),1.29 µM (inactive),0.589 µM (active),2.59,2.87 µM (inactive),1.76 µM (inactive),0.753 µM (active),2.06 µM (inactive),2.67 µM (inactive),1.59 µM (inactive),3.27 µM (inactive),3.59 µM (inactive),1.87 µM (inactive),0.693 µM (active),3.23 µM (inactive),3.32 µM (inactive),2.4 µM (inactive),3.15 µM (inactive)
CC(C)OC(=S)Nc1ccc(Cl)c(/C=N/OC(C)(C)C)c1,18.5 µM (inactive),15.1 µM (inactive),15.9 µM (inactive),13 µM (inactive),16.6,20 µM (inactive),17.1 µM (inactive),22.9 µM (inactive),17.9 µM (inactive),17.4 µM (inactive),11.9 µM (inactive),16 µM (inactive),12.3 µM (inactive),20.1 µM (inactive),14.5 µM (inactive),16.7 µM (inactive),20.7 µM (inactive),12.4 µM (inactive),17.1 µM (inactive)
S=C(N/N=C(/c1ccccc1)c1ccccn1)Nc1ccccc1Cl,3.3 µM (inactive),0.209 µM (active),< 0.01 µM (active),2.31 µM (inactive),0.0179,< 0.215 µM (active),0.0418 µM (active),< 0.01 µM (active),0.0993 µM (active),0.101 µM (active),< 0.01 µM (active),0.0243 µM (active),0.0299 µM (active),< 0.01 µM (active),0.124 µM (active),0.168 µM (active),4.95 µM (inactive),0.336 µM (active),0.0158 µM (active)
CSc1c(C)[n+]([O-])c2cc(Cl)c(Cl)cc2[n+]1[O-],18.3 µM (inactive),18.2 µM (inactive),2.32 µM (inactive),16.9 µM (inactive),17,3.32 µM (inactive),17.9 µM (inactive),19 µM (inactive),13.1 µM (inactive),37.9 µM (inactive),17.8 µM (inactive),17.4 µM (inactive),16.6 µM (inactive),18.6 µM (inactive),21.5 µM (inactive),16.4 µM (inactive),> 86.9 µM (inactive),20.6 µM (inactive),21.9 µM (inactive)
O[C@@H]1[C@H](OC2c3ccccc3-c3ccccc32)[C@H](OCc2ccccc2)[C@@H]2OC[C@H]1O2,> 100 µM (inactive),> 100 µM (inactive),42.4 µM (inactive),> 100 µM (inactive),> 100,> 100 µM (inactive),> 100 µM (inactive),> 100 µM (inactive),> 100 µM (inactive),–,> 100 µM (inactive),> 100 µM (inactive),39.6 µM (inactive),63.2 µM (inactive),> 100 µM (inactive),> 100 µM (inactive),58.2 µM (inactive),> 100 µM (inactive),43.3 µM (inactive)
NNC(=O)Cc1cccnc1,> 100 µM (inactive),> 100 µM (inactive),> 100 µM (inactive),> 100 µM (inactive),> 100,> 100 µM (inactive),> 100 µM (inactive),> 100 µM (inactive),–,> 100 µM (inactive),> 100 µM (inactive),> 100 µM (inactive),> 100 µM (inactive),> 100 µM (inactive),> 100 µM (inactive),> 100 µM (inactive),> 100 µM (inactive),> 100 µM (inactive),> 100 µM (inactive)
CCOP(=O)(OCC)/C(C#N)=C/c1cccn1N(C)C,62.2 µM (inactive),> 100 µM (inactive),> 100 µM (inactive),0.144 µM (active),> 100,> 100 µM (inactive),> 100 µM (inactive),> 100 µM (inactive),> 100 µM (inactive),> 100 µM (inactive),> 100 µM (inactive),> 100 µM (inactive),> 100 µM (inactive),> 100 µM (inactive),> 100 µM (inactive),> 100 µM (inactive),> 100 µM (inactive),> 100 µM (inactive),> 100 µM (inactive)
Cc1csc2c(P(=O)(OC(C)C)OC(C)C)c(-c3ccccc3)cn12,18.8 µM (inactive),18.2 µM (inactive),16.7 µM (inactive),18.5 µM (inactive),15.9,17.6 µM (inactive),13.6 µM (inactive),17.7 µM (inactive),–,16.5 µM (inactive),18 µM (inactive),14.6 µM (inactive),17.4 µM (inactive),14.8 µM (inactive),17.5 µM (inactive),17.1 µM (inactive),15.1 µM (inactive),11.5 µM (inactive),16 µM (inactive)
COc1cc2nc(-c3ccccc3F)nc(O)c2cc1OC,> 100 µM (inactive),> 100 µM (inactive),> 100 µM (inactive),> 100 µM (inactive),49.2,> 100 µM (inactive),> 100 µM (inactive),86.9 µM (inactive),> 100 µM (inactive),71.8 µM (inactive),> 100 µM (inactive),> 100 µM (inactive),> 100 µM (inactive),> 100 µM (inactive),> 100 µM (inactive),> 100 µM (inactive),63.8 µM (inactive),> 100 µM (inactive),–
c1ccc(CCNCc2ccco2)nc1,> 100 µM (inactive),> 100 µM (inactive),> 48.6 µM (inactive),> 100 µM (inactive),> 100,–,> 100 µM (inactive),> 83.9 µM (inactive),> 100 µM (inactive),> 100 µM (inactive),> 100 µM (inactive),> 100 µM (inactive),> 100 µM (inactive),> 100 µM (inactive),> 100 µM (inactive),> 100 µM (inactive),> 100 µM (inactive),> 100 µM (inactive),> 100 µM (inactive)
O=C(c1cccc(C(=O)c2ccc3c4c(cccc24)C(=O)N(c2ccccc2)C3=O)c1)c1ccc2c3c(cccc13)C(=O)N(c1ccccc1)C2=O,> 100 µM (inactive),> 100 µM (inactive),–,> 100 µM (inactive),> 100,> 100 µM (inactive),23.3 µM (inactive),28.2 µM (inactive),> 100 µM (inactive),> 100 µM (inactive),> 100 µM (inactive),> 100 µM (inactive),> 100 µM (inactive),> 100 µM (inactive),> 100 µM (inactive),> 100 µM (inactive),> 100 µM (inactive),69.8 µM (inactive),> 100 µM (inactive)
O=C1C[C@@H](c2ccccc2)NCCCCN(O)CCCN1,> 100 µM (inactive),> 100 µM (inactive),> 100 µM (inactive),> 100 µM (inactive),> 100,–,> 100 µM (inactive),> 100 µM (inactive),> 100 µM (inactive),–,> 100 µM (inactive),> 100 µM (inactive),> 100 µM (inactive),> 100 µM (inactive),> 100 µM (inactive),> 100 µM (inactive),28.4 µM (inactive),> 100 µM (inactive),> 100 µM (inactive)
CC[C@@]1(CCC(=O)NCCc2c[nH]c3ccccc23)CCC(=O)N2CCc3c([nH]c4ccccc34)[C@H]21,4.31 µM (inactive),> 100 µM (inactive),7.33 µM (inactive),29 µM (inactive),20,7.45 µM (inactive),27.4 µM (inactive),4.44 µM (inactive),20 µM (inactive),6.89 µM (inactive),4.57 µM (inactive),22.8 µM (inactive),–,5.56 µM (inactive),6.12 µM (inactive),39.5 µM (inactive),9.71 µM (inactive),16.7 µM (inactive),29.8 µM (inactive)
